From patent publication EP1561465A2, “Methods of use of fluoroquinolone compounds against bacteria” (LG Life Sciences, Ltd., priority 1999, dated 2001)
In brackets after ≈: the same amount, converted by molar mass. Several values for one entry are separate records, joined by “and”; a condition that tells them apart may be missing. Equal entries are not always repeated. Where two headings read alike, the source gives them in different places.

Assays:
Type in all cases: cell-based
Escherichia coli = test: MIC by agar dilution (NCCLS), 322 nosocomial Gram negative isolates, Athens 1998; settings: Escherichia coli; n = 57 isolates
Proteus mirabilis = test: as above; settings: n = 57 isolates; for MIC50 / MIC90: Proteus mirabilis
Klebsiella pneumoniae = test: as above; settings: n = 56 isolates; for MIC50 / MIC90: Klebsiella pneumoniae
Acinetobacter spp. = test: as above; settings: n = 38 strains; for MIC50 / MIC90: Acinetobacter
Pseudomonas aeruginosa = test: as above; settings: n = 57 isolates
Enterobacter spp. = test: as above; settings: n = 57 isolates; for MIC50 / MIC90: Enterobacter; for MIC50: read-out: MIC50; for MIC90: read-out: MIC90
[1] = system: Gram negative anaerobic pathogens and facultative anaerobic pathogens; test: MIC by agar dilution, Brucella HK agar with 5% laked sheep blood, anaerobic reference strains
[2] = system: Gram positive anaerobic and facultative anaerobic pathogens; test: organism not typed

## CC(C)(O/N=C(\C(=O)N[C@@H]1C(=O)N2C(C(=O)[O-])=C(C[n+]3ccccc3)CS[C@H]12)c1csc(N)n1)C(=O)O [Ceftazidime]
Escherichia coli
  MIC50: 0.125 µg/mL (≈ 0.229 µM)
  MIC90: 0.25 µg/mL (≈ 0.457 µM)
Proteus mirabilis
  MIC50: 0.125 µg/mL (≈ 0.229 µM)
  MIC90: 8 µg/mL (≈ 14.6 µM)
Klebsiella pneumoniae
  MIC50: 0.25 µg/mL (≈ 0.457 µM)
  MIC90: > 64 µg/mL
Acinetobacter spp.
  MIC50: > 64 µg/mL
  MIC90: > 64 µg/mL
Pseudomonas aeruginosa
  MIC50: 2 µg/mL (≈ 3.66 µM)
  MIC90: > 64 µg/mL

## C[C@@H](O)[C@H]1C(=O)N2C(C(=O)O)=C(S[C@@H]3CN[C@H](C(=O)N(C)C)C3)[C@H](C)[C@H]12 [Meropenem]
Escherichia coli
  MIC50: ≤ 0.03 µg/mL
  MIC90: ≤ 0.03 µg/mL
Enterobacter spp.
  MIC50: 0.06 µg/mL (≈ 0.156 µM)
  MIC90: 4 µg/mL (≈ 10.4 µM)
  MIC Range: ≤0.03 to 16 µg/mL
Proteus mirabilis
  MIC50: 0.03 µg/mL (≈ 0.0782 µM)
  MIC90: 0.25 µg/mL (≈ 0.652 µM)
  MIC Range: ≤0.03 to 4 µg/mL
Klebsiella pneumoniae
  MIC50: 0.03 µg/mL (≈ 0.0782 µM)
  MIC90: 0.06 µg/mL (≈ 0.156 µM)
  MIC Range: ≤0.03 to 2 µg/mL
Acinetobacter spp.
  MIC50: 2 µg/mL (≈ 5.22 µM)
  MIC90: 8 µg/mL (≈ 20.9 µM)
  MIC Range: 0.06 to 16 µg/mL
Pseudomonas aeruginosa
  MIC50: 1 µg/mL (≈ 2.61 µM)
  MIC90: 16 µg/mL (≈ 41.7 µM)

## CCN1CCN(C(=O)N[C@@H](C(=O)N[C@@H]2C(=O)N3[C@@H]2SC(C)(C)[C@@H]3C(=O)O)c2ccccc2)C(=O)C1=O [Piperacillin]
Escherichia coli
  MIC50: 4 µg/mL (≈ 7.73 µM)
  MIC90: 64 µg/mL (≈ 124 µM)
Enterobacter spp.
  MIC50: 16 µg/mL (≈ 30.9 µM)
  MIC90: > 64 µg/mL
Proteus mirabilis
  MIC50: 1 µg/mL (≈ 1.93 µM)
  MIC90: > 64 µg/mL
Klebsiella pneumoniae
  MIC50: 32 µg/mL (≈ 61.8 µM)
  MIC90: > 64 µg/mL
Acinetobacter spp.
  MIC50: > 64 µg/mL
  MIC90: > 64 µg/mL
Pseudomonas aeruginosa
  MIC50: 8 µg/mL (≈ 15.5 µM)
  MIC90: > 64 µg/mL

## C[C@@H](O)[C@H]1C(=O)N2C(C(=O)O)=C(SCCN=CN)C[C@H]12 [Imipenem]
[1]; Bacteroides eggerthii, ATCC27754
  MIC: 0.125 µg/mL (≈ 0.418 µM)
[1]; Bacteroides fragilis, ATCC25285, Bacteroides fragilis ATCC25285, read-out: MIC
  MIC: 0.5 µg/mL (≈ 1.67 µM)
[1]; Bacteroides fragilis, Bacteroides fragilis GA15562, read-out: MIC
  MIC: 0.25 µg/mL (≈ 0.835 µM)
[1]; Bacteroides fragilis, Bacteroides fragilis GA-I0558, read-out: MIC
  MIC: 1 µg/mL (≈ 3.34 µM)
[1]; Bacteroides fragilis, Bacteroides fragilis GA-I7955, read-out: MIC
  MIC: 4 µg/mL (≈ 13.4 µM)
[1]; Bacteroides fragilis, Bacteroides fragilis GAI10150, read-out: MIC
  MIC: 2 µg/mL (≈ 6.68 µM)
[1]; Bacteroides fragilis, Bacteroides fragilis GAI30079, read-out: MIC
  MIC: 256 µg/mL (≈ 855 µM)
[1]; Bacteroides fragilis, Bacteroides fragilis GAI30144, read-out: MIC
  MIC: 256 µg/mL (≈ 855 µM)
[1]; Bacteroides fragilis, NCTC10581
  MIC: 0.125 µg/mL (≈ 0.418 µM)
[1]; Bacteroides ovatus, ATCC8483, Bacteroides ovatus ATCC8483, read-out: MIC
  MIC: 0.25 µg/mL (≈ 0.835 µM)
[1]; Bacteroides thetaiotaomicron, ATCC29741, Bacteroides thetaiotaomicron ATCC29741, read-out: MIC
  MIC: 0.5 µg/mL (≈ 1.67 µM)
[1]; Bacteroides uniformis, ATCC8492, Bacteroides uniformis ATCC8492, read-out: MIC
  MIC: 0.5 µg/mL (≈ 1.67 µM)
[1]; Bilophilla wadsworthia WAL7959, read-out: MIC
  MIC: 0.25 µg/mL (≈ 0.835 µM)
[1]; Campylobacter gracilis, JCM8538, Campylobacter gracilis JCM8538, read-out: MIC
  MIC: 0.25 µg/mL (≈ 0.835 µM)
[1]; Campylobacter ureolyticus, NCTC10941, Bacteroides ureolyticus NCTC10941, read-out: MIC
  MIC: 0.25 µg/mL (≈ 0.835 µM)
[1]; Capnocytophaga ochracea, Capnocytophaga ochracea GAI5586, read-out: MIC
  MIC: 0.25 µg/mL (≈ 0.835 µM)
[1]; Desullomonas pigra DSM749, read-out: MIC
  MIC: 0.06 µg/mL (≈ 0.2 µM)
[1]; Fusobacterium necrophorum, ATCC25286
  MIC: 0.125 µg/mL (≈ 0.418 µM)
[1]; Fusobacterium nucleatum, ATCC25586, Fusobacterium nucleatum ATCC25586, read-out: MIC
  MIC: 1 µg/mL (≈ 3.34 µM)
[1]; Fusobacterium varium, ATCC8501, Fusobacterium varium ATCC8501, read-out: MIC
  MIC: 4 µg/mL (≈ 13.4 µM)
[1]; Hoylesella oralis, ATCC33269, Prevotella oralis ATCC33269, read-out: MIC
  MIC: ≤ 0.03 µg/mL
[1]; Parabacteroides distasonis, ATCC8503, Bacteroides distasonis ATCC8503, read-out: MIC
  MIC: 1 µg/mL (≈ 3.34 µM)
[1]; Phocaeicola vulgatus, ATCC8482, Bacteroides vulgatus ATCC8482, read-out: MIC
  MIC: 1 µg/mL (≈ 3.34 µM)
[1]; Porphylomonas gingivalis ATCC33277, read-out: MIC
  MIC: ≤ 0.03 µg/mL
[1]; Porphyromonas asaccharolytica, ATCC25260, Porphyromonas asaccharolytica ATCC25260, read-out: MIC
  MIC: ≤ 0.03 µg/mL
[1]; Prevotella bivia, ATCC29303, Prevotella bivia ATCC29303, read-out: MIC
  MIC: 0.06 µg/mL (≈ 0.2 µM)
[1]; Prevotella buccaeATCC33574, read-out: MIC
  MIC: 0.25 µg/mL (≈ 0.835 µM)
[1]; Prevotella corporis, Prevotella corporis GAI91000, read-out: MIC
  MIC: ≤ 0.03 µg/mL
[1]; Prevotella heparinolytica, ATCC35895
  MIC: 0.125 µg/mL (≈ 0.418 µM)
[1]; Prevotella melaninogenica, Prevotella melaninogenica GAI5490, read-out: MIC
  MIC: ≤ 0.03 µg/mL
[1]; Segatella oris, ATCC33573, Prevotella oris ATCC33573, read-out: MIC
  MIC: 0.06 µg/mL (≈ 0.2 µM)
[1]; Sutterella wadsworthensis, ATCC51579, Sutterella wadsworthensis ATCC51579, read-out: MIC
  MIC: 2 µg/mL (≈ 6.68 µM)
[1]; Veillonella dispar, ATCC17748, Veillonella dispar ATCC17748, read-out: MIC
  MIC: 0.06 µg/mL (≈ 0.2 µM)
[1]; Veillonella parvula, ATCC10790
  MIC: 0.125 µg/mL (≈ 0.418 µM)
Enterobacter spp.
  MIC50: 1 µg/mL (≈ 3.34 µM)
  MIC90: 2 µg/mL (≈ 6.68 µM)
  MIC Range: 0.25 to 64 µg/mL
[2]
  MIC: 0.125 µg/mL and 0.25 µg/mL
[2]; Bifidobacterium adolescentis, ATCC15703
  MIC: 0.125 µg/mL (≈ 0.418 µM)
[2]; Bifidobacterium bifidum, JCM1255
  MIC: 0.125 µg/mL (≈ 0.418 µM)
[2]; Bifidobacterium breve, ATCC15700
  MIC: 1 µg/mL (≈ 3.34 µM)
[2]; Bifidobacterium longum, ATCC15707
  MIC: 0.25 µg/mL (≈ 0.835 µM)
[2]; Bifidobacterium pseudolongum, ATCC25526
  MIC: 0.25 µg/mL (≈ 0.835 µM)
[2]; Clostridioides difficile
  MIC: 4 µg/mL (≈ 13.4 µM)
[2]; Clostridium perfringens, ATCC13124
  MIC: 0.125 µg/mL (≈ 0.418 µM)
[2]; Clostridium septicum, ATCC12464
  MIC: ≤ 0.03 µg/mL
[2]; Cutibacterium acnes, ATCC11828
  MIC: 0.125 µg/mL (≈ 0.418 µM)
[2]; Eggerthella lenta, ATCC25559
  MIC: 2 µg/mL (≈ 6.68 µM)
[2]; Finegoldia magna, ATCC29328
  MIC: 0.25 µg/mL (≈ 0.835 µM)
[2]; Gemella morbillorum, ATCC27824
  MIC: ≤ 0.03 µg/mL
[2]; Lacticaseibacillus casei, JCM1134
  MIC: 0.5 µg/mL (≈ 1.67 µM)
[2]; Lactiplantibacillus plantarum, JCM1149
  MIC: 0.06 µg/mL (≈ 0.2 µM)
[2]; Lactobacillus acidophilus, JCM1132
  MIC: 0.125 µg/mL (≈ 0.418 µM)
[2]; Levilactobacillus brevis, JCM1059
  MIC: 0.06 µg/mL (≈ 0.2 µM)
[2]; Ligilactobacillus salivarius, JCM1231
  MIC: 0.5 µg/mL (≈ 1.67 µM)
[2]; Limosilactobacillus reuteri, JCM1112
  MIC: 0.06 µg/mL (≈ 0.2 µM)
[2]; Limosilactobacillus reuteri, JCM1173
  MIC: ≤ 0.03 µg/mL
[2]; Paraclostridium sordellii, ATCC9714
  MIC: ≤ 0.03 µg/mL
[2]; Parvimonas micra
  MIC: 0.125 µg/mL (≈ 0.418 µM)
[2]; Peptoniphilus asaccharolyticus
  MIC: 0.125 µg/mL (≈ 0.418 µM)
[2]; Peptoniphilus indolicus
  MIC: ≤ 0.03 µg/mL
[2]; Peptostreptococcus anaerobius, ATCC27337
  MIC: 0.06 µg/mL (≈ 0.2 µM)
[2]; Schaalia odontolytica
  MIC: 0.5 µg/mL (≈ 1.67 µM)
[2]; Staphylococcus saccharolyticus, ATCC14953
  MIC: ≤ 0.03 µg/mL
[2]; Streptococcus constellatus, ATCC27823
  MIC: 0.25 µg/mL (≈ 0.835 µM)
[2]; Streptococcus intermedius, ATCC27335
  MIC: 0.25 µg/mL (≈ 0.835 µM)
[2]; Thomasclavelia ramosa, ATCC25582
  MIC: 0.25 µg/mL (≈ 0.835 µM)
Proteus mirabilis
  MIC50: 2 µg/mL (≈ 6.68 µM)
  MIC90: 4 µg/mL (≈ 13.4 µM)
  MIC Range: 0.125 to 16 µg/mL
Klebsiella pneumoniae
  MIC50: 0.25 µg/mL (≈ 0.835 µM)
  MIC90: 1 µg/mL (≈ 3.34 µM)
  MIC Range: 0.125 to 4 µg/mL
Acinetobacter spp.
  MIC50: 1 µg/mL (≈ 3.34 µM)
  MIC90: 4 µg/mL (≈ 13.4 µM)
  MIC Range: 0.06 to 16 µg/mL
Pseudomonas aeruginosa
  MIC50: 2 µg/mL (≈ 6.68 µM)
  MIC90: 32 µg/mL (≈ 107 µM)
